Laboratory results published in patent publication US9512084B2, “Amino pyrimidine derivatives” (Novartis AG, priority 2013, dated 2016).

Key:
Btk = Btk (Rattus norvegicus, UniProt Q5S255); assay: Inhibition of Btk activity in blood (in vitro B cell activation assay, CD86, rat whole blood); type: cell-based; settings: Lewis rat whole blood diluted to 50%, anti-rat IgM + rat IL-4, 24 hours, CD86 on CD45RA positive B cells
Procedure: Alternatively, the inhibitory activity of the present compounds in blood was assessed in the following in vitro B cell activation assay. Whole blood was collected from the abdominal aorta of anaesthetized adult male Lewis rats and was anticoagulated with 100 U/ml sodium heparin. Blood was then diluted to 50% with high glucose DMEM (Amimed) supplemented with […] penicillin, […], 2 mM L-glutamin, 50 mg/ml dextran 40 and 5% FCS (Fetaclone I, Gibco). Then, 190 μl prediluted blood was mixed in 96 well U-bottomed microtiter plates (Nunc) with 10 μl of serial dilutions of test compounds in DMSO. […] Activation of B cells was measured by flow cytometry after staining for the B cell subset with PE-Cy5-labeled anti-ratCD45RA (Beckton-Dickinson) and for the activation marker CD86 (PE-labeled anti-rat CD86 (Beckton-Dickinson). All staining procedures were performed at RT for 30 min in the dark in 96-deep well V-bottomed microtiter plates (Corning) with BD Lysing Solution (Beckton-Dickinson).
Cytometric data was acquired on a FACScalibur flow cytometer (BD Biosciences) and the subpopulation of lymphocytes were gated according to size and granularity and further analyzed for expression of CD45RA and the activation markers. Data for the inhibition of B cell activation were calculated from the percentage of cells positively stained for activation markers within the CD45RA positive population.

[1] = molecular target: full-length human recombinant BTK (Homo sapiens (Human), UniProt Q06187); assay: Inhibition of Btk enzymatic activity (biochemical enzyme assay, Caliper); settings: 6.4 nM enzyme solution, 164 μM ATP solution, 30° C., 60 minutes
Procedure: The inhibitory activity of the present compounds against Btk was assessed in a biochemical enzyme assay. […] The assay plates were prepared by addition of 50 nl per well of compound solution in 90% DMSO. […] Kinase reactions were analyzed on a Caliper LC3000 workstation by separating phosphorylated and unphosphorylated peptides and kinase activities were calculated from the amounts of newly formed phospho-peptide.

Chain of full-length human recombinant BTK (Q06187 whole entry): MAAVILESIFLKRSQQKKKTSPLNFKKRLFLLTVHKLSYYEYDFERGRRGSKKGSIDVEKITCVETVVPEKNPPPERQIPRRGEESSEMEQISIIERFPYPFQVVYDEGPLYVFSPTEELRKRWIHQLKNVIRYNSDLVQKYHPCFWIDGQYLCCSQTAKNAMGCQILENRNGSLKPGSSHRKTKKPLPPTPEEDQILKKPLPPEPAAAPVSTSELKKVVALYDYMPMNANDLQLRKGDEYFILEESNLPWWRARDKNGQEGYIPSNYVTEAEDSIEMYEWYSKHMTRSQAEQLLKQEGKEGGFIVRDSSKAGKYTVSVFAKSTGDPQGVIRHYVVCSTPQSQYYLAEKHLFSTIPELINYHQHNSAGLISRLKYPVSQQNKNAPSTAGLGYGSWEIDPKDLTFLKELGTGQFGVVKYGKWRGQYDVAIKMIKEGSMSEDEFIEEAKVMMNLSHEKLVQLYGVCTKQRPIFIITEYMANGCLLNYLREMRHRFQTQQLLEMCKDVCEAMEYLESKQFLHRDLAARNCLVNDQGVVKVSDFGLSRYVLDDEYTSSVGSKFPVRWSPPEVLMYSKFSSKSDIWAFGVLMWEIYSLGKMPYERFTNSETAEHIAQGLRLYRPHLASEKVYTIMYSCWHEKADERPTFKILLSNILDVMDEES
Chain of Btk (Q5S255 1-660): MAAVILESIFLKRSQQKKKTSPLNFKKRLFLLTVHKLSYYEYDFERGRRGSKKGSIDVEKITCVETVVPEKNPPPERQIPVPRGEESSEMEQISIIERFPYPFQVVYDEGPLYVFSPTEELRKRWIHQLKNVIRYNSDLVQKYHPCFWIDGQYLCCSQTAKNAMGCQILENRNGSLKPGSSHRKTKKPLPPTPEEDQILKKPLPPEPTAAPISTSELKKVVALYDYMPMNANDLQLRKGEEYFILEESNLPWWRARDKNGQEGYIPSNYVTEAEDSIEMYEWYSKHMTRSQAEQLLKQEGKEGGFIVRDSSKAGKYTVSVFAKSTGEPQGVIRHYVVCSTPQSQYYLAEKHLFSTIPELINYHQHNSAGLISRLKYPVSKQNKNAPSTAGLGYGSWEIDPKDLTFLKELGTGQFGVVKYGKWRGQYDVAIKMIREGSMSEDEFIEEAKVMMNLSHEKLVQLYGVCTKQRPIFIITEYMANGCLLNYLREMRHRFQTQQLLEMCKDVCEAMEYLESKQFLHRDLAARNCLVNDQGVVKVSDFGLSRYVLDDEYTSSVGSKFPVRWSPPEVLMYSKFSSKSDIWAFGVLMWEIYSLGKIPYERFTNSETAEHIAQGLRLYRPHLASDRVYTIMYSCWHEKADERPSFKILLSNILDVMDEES

SMILES | IC50 (Btk) [nM] | IC50 [1] [nM]
C=CC(=O)N1C[C@H](OC)C[C@H]1COc1c(N)ncnc1-c1cc(F)cc(NC(=O)c2ccc(C3CC3)cc2F)c1C [Example 26, N-(3-(5-(((2S,4R)-1-Acryloyl-4-methoxypyrrolidin-2-yl)methoxy)-6-aminopyrimidin-4-yl)-5-fluoro-2-methylphenyl)-4-cyclopropyl-2-fluorobenzamide] | 51 | 0.4
C=CC(=O)N(C)CCOc1c(N)ncnc1-c1cccc(-n2ccc3cc(C4CC4)cc(F)c3c2=O)c1 [Example 12, N-(2-((4-Amino-6-(3-(6-cyclopropyl-8-fluoro-1-oxoisoquinolin-2(1H)-yl)phenyl)pyrimidin-5-yl)oxy)ethyl)-N-methylacrylamide] | 459 | 12
CC#CC(=O)N[C@@H](C)COc1c(N)ncnc1-c1cc(F)cc(NC(=O)c2ccc(C3CC3)cc2F)c1C [Example 18, (S)—N-(3-(6-Amino-5-(2-(but-2-ynamido)propoxy)pyrimidin-4-yl)-5-fluoro-2-methylphenyl)-4-cyclopropyl-2-fluorobenzamide] | 419 | 1
C=CC(=O)N1CC[C@H](OC)[C@H]1COc1c(N)ncnc1-c1cc(F)cc(NC(=O)c2ccc(C3CC3)cc2F)c1C [Example 38, N-(3-(5-(((2R,3S)-1-Acryloyl-3-methoxypyrrolidin-2-yl)methoxy)-6-aminopyrimidin-4-yl)-5-fluoro-2-methylphenyl)-4-cyclopropyl-2-fluorobenzamide] | 70 | 2
COC/C=C/C(=O)N(C)CCOc1c(N)ncnc1-c1cc(F)cc(NC(=O)c2ccc(C3CC3)cc2F)c1C [Example 9, (E)-N-(3-(6-Amino-5-(2-(4-methoxy-N-methylbut-2-enamido)ethoxy)pyrimidin-4-yl)-5-fluoro-2-methylphenyl)-4-cyclopropyl-2-fluorobenzamide] | 240 | 10
C=CC(=O)N(C)CCOc1c(N)ncnc1-c1cc(F)cc(N2CCc3cc(C4CC4)ccc3C2=O)c1CO [Example 25, N-(2-((4-Amino-6-(3-(6-cyclopropyl-1-oxo-3,4-dihydroisoquinolin-2(1H)-yl)-5-fluoro-2-(hydroxymethyl)phenyl)pyrimidin-5-yl)oxy)ethyl)-N-methylacrylamide] | 65 | 1
CC#CC(=O)N1C[C@H](OC)C[C@H]1COc1c(N)ncnc1-c1cc(F)cc(NC(=O)c2ccc(C3CC3)cc2F)c1C [Example 27, N-(3-(6-Amino-5-(((2S,4R)-1-(but-2-ynoyl)-4-methoxypyrrolidin-2-yl)methoxy)pyrimidin-4-yl)-5-fluoro-2-methylphenyl)-4-cyclopropyl-2-fluorobenzamide] | 76 | 3
CC#CC(=O)N1C[C@@H](OC)C[C@H]1COc1c(N)ncnc1-c1cc(F)cc(NC(=O)c2ccc(C3CC3)cc2F)c1C [Example 30, N-(3-(6-Amino-5-(((2S,4S)-1-(but-2-ynoyl)-4-methoxypyrrolidin-2-yl)methoxy)pyrimidin-4-yl)-5-fluoro-2-methylphenyl)-4-cyclopropyl-2-fluorobenzamide] | 222 | 6
C=CC(=O)N[C@@H](C)COc1c(N)ncnc1-c1cc(F)cc(NC(=O)c2ccc(C3CC3)cc2F)c1C [Example 17, (S)—N-(3-(5-(2-Acrylamidopropoxy)-6-aminopyrimidin-4-yl)-5-fluoro-2-methylphenyl)-4-cyclopropyl-2-fluorobenzamide] | 246 | 5
C=CC(=O)N1C[C@H](C#N)C[C@H]1COc1c(N)ncnc1-c1cc(F)cc(NC(=O)c2ccc(C3CC3)cc2F)c1C [Example 39, N-(3-(5-(((2S,4R)-1-Acryloyl-4-cyanopyrrolidin-2-yl)methoxy)-6-aminopyrimidin-4-yl)-5-fluoro-2-methylphenyl)-4-cyclopropyl-2-fluorobenzamide] | 176 | 1
Cc1c(NC(=O)c2ccc(C3CC3)cc2F)cc(F)cc1-c1ncnc(N)c1OCCN(C)C(=O)C1CO1 (centres unmarked) [Example 11, N-(2-((4-Amino-6-(3-(4-cyclopropyl-2-fluorobenzamido)-5-fluoro-2-methylphenyl)pyrimidin-5-yl)oxy)ethyl)-N-methyloxirane-2-carboxamide] | 323 | 10
CC#CC(=O)N1CCC[C@H]1COc1c(N)ncnc1-c1cc(F)cc(NC(=O)c2ccc(C3CC3)cc2F)c1C [Example 23, (S)—N-(3-(6-Amino-5-((1-(but-2-ynoyl)pyrrolidin-2-yl)methoxy)pyrimidin-4-yl)-5-fluoro-2-methylphenyl)-4-cyclopropyl-2-fluorobenzamide] | 57 | 1
C=CC(=O)N(C)[C@@H](C)COc1c(N)ncnc1-c1cc(F)cc(NC(=O)c2ccc(C3CC3)cc2F)c1C [Example 19, (S)—N-(3-(6-Amino-5-(2-(N-methylacrylamido)propoxy)pyrimidin-4-yl)-5-fluoro-2-methylphenyl)-4-cyclopropyl-2-fluorobenzamide] | 136 | 16
C#CC(=O)N1CC(Oc2c(N)ncnc2-c2cc(F)cc(NC(=O)c3ccc(C4CC4)cc3F)c2C)C1 [Example 3, N-(3-(6-Amino-5-((1-propioloylazetidin-3-yl)oxy)pyrimidin-4-yl)-5-fluoro-2-methylphenyl)-4-cyclopropyl-2-fluorobenzamide] | 124 | 1
C=CC(=O)N(CCF)CCOc1c(N)ncnc1-c1cc(F)cc(NC(=O)c2ccc(C3CC3)cc2F)c1C [Example 15, N-(3-(6-Amino-5-(2-(N-(2-fluoroethyl)acrylamido)ethoxy)pyrimidin-4-yl)-5-fluoro-2-methylphenyl)-4-cyclopropyl-2-fluorobenzamide] | 29 | 1
CC#CC(=O)N1CC(Oc2c(N)ncnc2-c2cc(F)cc(NC(=O)c3ccc(C4CC4)cc3F)c2C)C1 [Example 4, N-(3-(6-Amino-5-((1-(but-2-ynoyl)azetidin-3-yl)oxy)pyrimidin-4-yl)-5-fluoro-2-methylphenyl)-4-cyclopropyl-2-fluorobenzamide] | 376 | 9
C#CC(=O)N1CC[C@H]1COc1c(N)ncnc1-c1cc(F)cc(NC(=O)c2ccc(C3CC3)cc2F)c1C [Example 34, (S)—N-(3-(6-Amino-5-((1-propioloylazetidin-2-yl)methoxy)pyrimidin-4-yl)-5-fluoro-2-methylphenyl)-4-cyclopropyl-2-fluorobenzamide] | 208 | 2
C=CC(=O)NC1(COc2c(N)ncnc2-c2cc(F)cc(NC(=O)c3ccc(C4CC4)cc3F)c2C)CC1 [Example 16, N-(3-(5-((1-Acrylamidocyclopropyl)methoxy)-6-aminopyrimidin-4-yl)-5-fluoro-2-methylphenyl)-4-cyclopropyl-2-fluorobenzamide] | 558 | 15
C=CC(=O)N1CC[C@H]1COc1c(N)ncnc1-c1cc(F)cc(N2CCc3cc(C4CC4)ccc3C2=O)c1CO [Example 35, (S)-2-(3-(5-((1-Acryloylazetidin-2-yl)methoxy)-6-aminopyrimidin-4-yl)-5-fluoro-2-(hydroxymethyl)phenyl)-6-cyclopropyl-3,4-dihydroisoquinolin-1(2H)-one] | 72 | 2
